Molecules are shown by their SMILES. The source made the active and inactive calls. No rule for the calls is given here.

Chain of Ribonuclease HI (Escherichia coli (strain K12)) (P0A7Y4 whole entry, looked up): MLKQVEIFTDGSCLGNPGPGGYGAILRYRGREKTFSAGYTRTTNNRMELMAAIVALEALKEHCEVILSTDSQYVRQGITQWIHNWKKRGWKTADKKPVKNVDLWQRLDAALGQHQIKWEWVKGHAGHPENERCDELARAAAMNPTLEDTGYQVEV

The experiment concerns the target Ribonuclease HI (Escherichia coli (strain K12)) (UniProt P0A7Y4). The experiment can be described thus: inhibition of bacterial ribonuclease H activity – biochemical, FRET RNA/DNA duplex cleavage, dose response (AID 365). To be noted: E. coli RNase H, FRET RNA/DNA cleavage fluorescence.
On to `CC(C)c1ccc(O)c(O)c(=O)c1`, for which the IC50 entry was “inactive”.

Consider `O=C1NC(=S)S/C1=C/c1cccc(OCc2ccc(Cl)c(Cl)c2)c1`, for which the IC50 was 4.4 µM.

Consider `Oc1c(Br)cc(/C=N/Nc2nnc3c(n2)[nH]c2ccccc23)c(Br)c1O`, for which the IC50 is 4.3 µM.

For the molecule `Cc1cccc(NCC(=O)N/N=C\c2c(Br)cc(Br)c(O)c2Br)c1`, the IC50 entry is “inactive”.

With `Cc1ccc(-n2c(/C=C/c3ccc(O)c(O)c3)nc3ccccc3c2=O)cc1`, the IC50 was 5 µM.

In the case of `Cc1onc(-c2ccccc2)c1C(=O)Nc1sc(C)c(C)c1C(N)=O`, the IC50 entry is “inactive”.

As for `O=C1Nc2ccc(I)cc2C1(O)N1CCOCC1` (stereo not given), the IC50 was 0.8 µM.

Consider `O=C1C=CC(=O)C(c2cc(Cl)ccc2Cl)=C1`, for which the IC50 was 9.2 µM.

For the molecule `COc1ccccc1NC(=O)c1c(NC(=O)Cc2ccccc2)sc2c1CCCCC2`, the IC50 is 0.26 µM.

Take `CC1C2C=CC1C(c1c3ccc(=O)c(O)c-3oc3c(O)c(O)ccc13)C2C(=O)O` (stereo not given): the IC50 was 1.3 µM.

In the case of `CCCc1cc(=O)oc2c3c(c4c(c12)OC(C)(C)C=C4)O[C@@H](C)[C@H](C)[C@@H]3F`, the IC50 is 7 µM.

Regarding `O=C1NC(=S)N(c2cccc(Cl)c2)C(=O)/C1=C\C=C\c1ccco1`, the IC50 entry is “inactive”.

Consider `O=S(=O)(Nc1cccc(C(F)(F)F)c1)c1ccc2ccccc2c1`, for which the IC50 entry was “inactive”.

For `CC(C)c1cccc(O)c(=O)c1`, the IC50 is > 100 µM (inactive).

As to `CCCc1cc(=O)oc2c3c(c4c(c12)OC(C)(C)C=C4)O[C@H](C)[C@@H](C)[C@H]3OC`, the IC50 result is “inactive”.

For the molecule `Cc1ccc(S(=O)(=O)/N=C2\C=CC(=O)C=C2Cl)cc1`, the IC50 result is “inactive”.

Consider `Oc1cc(CN2COc3ccccc32)c(O)cc1CNC1CCCCC1`, for which the IC50 is > 100 µM (inactive).

For `CC(C)=CCC(O)C1=CC(=O)c2c(O)ccc(O)c2C1=O` (stereo not given), the IC50 result was “inactive”.

Turning to `NC(=O)c1c(N)sc2c1CCCCC2`, the IC50 is > 100 µM (inactive).

As to `Cc1ccc(S(=O)(=O)N=C2C=C(Cl)C(=O)C(Br)=C2)cc1`, the IC50 entry was “inactive”.

Values taken from PubChem BioAssay AID365 (MTDP, 2006).
